# Assay results taken from patent US20080155704A1, “Methods and Compositions for Determining in vivo Activity of BiP” (King's College London, priority 2006, published 2008).
# Read-outs that look alike come from different tables or passages of the source.
# Legend:
# [1] = system: human rheumatoid arthritis synovial membrane (RASM); assay: Human RASM transplanted in SCID mice (RASM/SCID chimeric mouse); format: in vivo, human tissue in SCID mice
# Procedure: Small pieces of human synovial tissue from patients with rheumatoid arthritis were transplanted into SCID mice. […] CD86, HLA-DR, TNFα and IL-6 expression was measured by immunohistology. (B) the weight of explants retrieved from the mice treated as indicated after 12d.
# This study used the previously developed SCID-HuRAg murine model (20). Briefly, pannus tissue, consisting of the leading edge of the invading synovial membrane into articular cartilage and bone, was collected as a single mass from RA patients at the time of arthroplastic surgery with full ethical approval. A block of 4-8 mm in diameter was implanted subcutaneously into the back of 6- to 7-week-old male SCID mice (CB.17/Icr; Charles River Japan, Tokyo, Japan), which had been bred under specific pathogen-free conditions. Successful implantation of human RA tissue was assessed visually 4 weeks after implantation, after which therapeutic manipulation of the mice was undertaken. […] The mice were sacrificed 12 days after injection to allow removal of the implanted tissue.
# The degree of synovial inflammation of the implanted tissue was assessed as previously described. The histological findings were scored according to two different scoring systems: Koizumi's (40) or Rooney's method (41).
# Paraffin embedded tissue sections were used for immunostaining for CD86 and HLA-DR. Frozen tissue sections were stained for the detection of cytokines (TNF, IL-1, IL-6, and IL-10). The tissue sections were blocked for endogenous peroxidase activity with 0.3% hydrogen peroxide in methanol for 15 min. Non-specific antibody binding was blocked with 10% normal goat serum for 1 hr at room temperature. The sections were incubated with specific antibody or normal IgG for 1 hr at 37° C. The sections incubated with anti-CD86 antibody were treated with biotinylated secondary antibody, then visualised using a kit (Vectastatin ABC kit, Vector) with 3-amino-n-ethylcarbazole (Nichirei, Tokyo) as a substrate. The other sections were treated with peroxidase-conjugated anti-mouse IgG (Histofine Simple Stain MAX PO; Nichirei, Tokyo) for 30 min at room temperature and developed with 3-amino-n-ethylcarbazole (Nichirei, Tokyo) for visualization. Sections were counterstained with Mayer haematoxylin for 10 sec and mounted in aqueous permanent mounting solution (Nichirei, Tokyo).
# The serum levels of human IL-4, IL-6 and IL-10 were measured by a quantitative sandwich enzyme immunoassay technique (Quantikine HS, R&D systems) according to the manufacturer's instructions.
# [2] = system: collagen-induced arthritis (CIA); conditions: administration of BiP to mice, literature reference, cited from earlier work
# [3] = 10 μg/mouse single i.v. injection, 12 days
# [4] = BiP 10 μg/animal i.v., 12d (FIG. 15A)
substance,measurement,setting,value
BiP: 78 kD endoplasmic reticulum chaperone protein as disclosed in WO 00/21995; recombinant human protein,human IL-6 in mouse sera,"[1]; 10 μg/mouse i.v., 12 days",0.5 ± 0.2 pg/mL
same,Koizumi score of synovial inflammation,[1]; [3],6.1±2.6
same,Rooney score of synovial inflammation,[1]; [3],16±6
same,IL-10 in explants,"[1]; BiP 10 μg/animal i.v., 12d",no increase in IL-10 was detected
same,expression of CD86 and HLA-DR in explant sections (immunohistology),[1]; [4],Significantly reduced expression of CD86 and HLA-DR
same,production of human TNFα and IL-6 in explants (immunohistology),[1]; [4],decreased production of human TNFα and IL-6
same,effect on collagen-induced arthritis,[2],prevented or treated ongoing collagen-induced arthritis
same,effect on collagen-induced arthritis,[2]; listed as rhuBiP,prevented the induction of experimental arthritis
